Details: Vibrating tube method

FC(F)=C(F)C(F)(F)F [hexafluoropropene]
Details | mass density [kg/m3]
263.41 K, 162.7 kPa, Fluid (supercritical or subcritical phases) | 11.79
263.41 K, 164.3 kPa, Fluid (supercritical or subcritical phases) | 11.92
263.41 K, 165.5 kPa, Fluid (supercritical or subcritical phases) | 12.02
263.41 K, 167 kPa, Fluid (supercritical or subcritical phases) | 12.14
263.41 K, 168.6 kPa, Fluid (supercritical or subcritical phases) | 12.22
263.41 K, 170.1 kPa, Fluid (supercritical or subcritical phases) | 12.35
263.41 K, 171.8 kPa, Fluid (supercritical or subcritical phases) | 12.46
263.41 K, 173.2 kPa, Fluid (supercritical or subcritical phases) | 12.64
263.41 K, 174.8 kPa, Fluid (supercritical or subcritical phases) | 12.73
263.41 K, 176.4 kPa, Fluid (supercritical or subcritical phases) | 12.82
263.41 K, 177.9 kPa, Fluid (supercritical or subcritical phases) | 13
263.41 K, 179.4 kPa, Fluid (supercritical or subcritical phases) | 13.09
263.41 K, 180.9 kPa, Fluid (supercritical or subcritical phases) | 13.22
263.41 K, 182.4 kPa, Fluid (supercritical or subcritical phases) | 13.34
263.41 K, 183.9 kPa, Fluid (supercritical or subcritical phases) | 13.46
263.41 K, 185.4 kPa, Fluid (supercritical or subcritical phases) | 13.58
263.41 K, 186.9 kPa, Fluid (supercritical or subcritical phases) | 13.66
263.41 K, 188.4 kPa, Fluid (supercritical or subcritical phases) | 13.77
263.41 K, 189.9 kPa, Fluid (supercritical or subcritical phases) | 13.87
263.41 K, 191.3 kPa, Fluid (supercritical or subcritical phases) | 14.01
263.41 K, 192.8 kPa, Fluid (supercritical or subcritical phases) | 14.11
263.41 K, 194.2 kPa, Fluid (supercritical or subcritical phases) | 14.27
263.41 K, 195.7 kPa, Fluid (supercritical or subcritical phases) | 14.37
263.41 K, 197.1 kPa, Fluid (supercritical or subcritical phases) | 14.48
263.41 K, 198.5 kPa, Fluid (supercritical or subcritical phases) | 14.63
263.41 K, 199.9 kPa, Fluid (supercritical or subcritical phases) | 14.76
263.41 K, 201.3 kPa, Fluid (supercritical or subcritical phases) | 14.81
263.41 K, 202.7 kPa, Fluid (supercritical or subcritical phases) | 14.96
263.41 K, 204.1 kPa, Fluid (supercritical or subcritical phases) | 15.01
263.41 K, 205.5 kPa, Fluid (supercritical or subcritical phases) | 15.14
263.41 K, 206.9 kPa, Fluid (supercritical or subcritical phases) | 15.26
263.41 K, 208.3 kPa, Fluid (supercritical or subcritical phases) | 15.38
263.41 K, 209.6 kPa, Fluid (supercritical or subcritical phases) | 15.49
263.41 K, 211 kPa, Fluid (supercritical or subcritical phases) | 15.6
263.41 K, 212.3 kPa, Fluid (supercritical or subcritical phases) | 15.71
263.41 K, 213.6 kPa, Fluid (supercritical or subcritical phases) | 15.8
263.41 K, 214.9 kPa, Fluid (supercritical or subcritical phases) | 15.93
263.41 K, 216.3 kPa, Fluid (supercritical or subcritical phases) | 16.03
263.41 K, 217.6 kPa, Fluid (supercritical or subcritical phases) | 16.16
263.41 K, 218.8 kPa, Fluid (supercritical or subcritical phases) | 16.24
263.41 K, 220.2 kPa, Fluid (supercritical or subcritical phases) | 16.31
263.41 K, 220.6 kPa, Fluid (supercritical or subcritical phases) | 16.37
263.41 K, 221.1 kPa, Fluid (supercritical or subcritical phases) | 16.43
263.41 K, 221.5 kPa, Fluid (supercritical or subcritical phases) | 16.47
263.41 K, 222 kPa, Fluid (supercritical or subcritical phases) | 16.48
263.41 K, 222.4 kPa, Fluid (supercritical or subcritical phases) | 16.53
263.41 K, 223.2 kPa, Fluid (supercritical or subcritical phases) | 16.59
263.41 K, 223.6 kPa, Fluid (supercritical or subcritical phases) | 16.63
263.41 K, 224 kPa, Fluid (supercritical or subcritical phases) | 16.66
263.41 K, 224.4 kPa, Fluid (supercritical or subcritical phases) | 16.7
263.41 K, 225.4 kPa, Fluid (supercritical or subcritical phases) | 16.76
263.41 K, 226.2 kPa, Fluid (supercritical or subcritical phases) | 16.85
263.41 K, 226.6 kPa, Fluid (supercritical or subcritical phases) | 16.88
263.41 K, 227 kPa, Fluid (supercritical or subcritical phases) | 16.94
263.41 K, 227.9 kPa, Fluid (supercritical or subcritical phases) | 16.98
263.41 K, 228.6 kPa, Fluid (supercritical or subcritical phases) | 17.03
263.41 K, 229 kPa, Fluid (supercritical or subcritical phases) | 17.07
263.41 K, 229.9 kPa, Fluid (supercritical or subcritical phases) | 17.2
263.41 K, 230.7 kPa, Fluid (supercritical or subcritical phases) | 17.24
263.41 K, 231.4 kPa, Fluid (supercritical or subcritical phases) | 17.29
263.41 K, 231.9 kPa, Fluid (supercritical or subcritical phases) | 17.35
263.41 K, 232.6 kPa, Fluid (supercritical or subcritical phases) | 17.43
263.41 K, 233 kPa, Fluid (supercritical or subcritical phases) | 17.48
263.41 K, 233.4 kPa, Fluid (supercritical or subcritical phases) | 17.55
263.41 K, 234.2 kPa, Fluid (supercritical or subcritical phases) | 17.65
263.41 K, 234.9 kPa, Fluid (supercritical or subcritical phases) | 17.92
263.41 K, 235.5 kPa, Fluid (supercritical or subcritical phases) | 18.45
263.41 K, 236 kPa, Fluid (supercritical or subcritical phases) | 19
263.49 K, 230.2 kPa, Liquid | 1462.58
263.49 K, 230.4 kPa, Liquid | 1462.56
263.49 K, 231 kPa, Liquid | 1462.62
263.49 K, 231.9 kPa, Liquid | 1462.66
263.49 K, 232.1 kPa, Liquid | 1462.66
263.49 K, 235.3 kPa, Liquid | 1462.67
263.49 K, 242.7 kPa, Liquid | 1462.66
263.49 K, 244.5 kPa, Liquid | 1462.72
263.49 K, 250.6 kPa, Liquid | 1462.76
263.49 K, 257.4 kPa, Liquid | 1462.73
263.49 K, 258.3 kPa, Liquid | 1462.79
263.49 K, 263.2 kPa, Liquid | 1462.89
263.49 K, 273.9 kPa, Liquid | 1462.91
263.49 K, 279.5 kPa, Liquid | 1462.96
263.49 K, 288.7 kPa, Liquid | 1462.98
263.49 K, 322.8 kPa, Liquid | 1463.12
263.49 K, 327.2 kPa, Liquid | 1463.13
263.49 K, 333.9 kPa, Liquid | 1463.18
263.49 K, 337.8 kPa, Liquid | 1463.15
263.49 K, 341.2 kPa, Liquid | 1463.16
263.49 K, 345.9 kPa, Liquid | 1463.25
263.49 K, 354.4 kPa, Liquid | 1463.25
263.49 K, 361.4 kPa, Liquid | 1463.34
263.49 K, 370.3 kPa, Liquid | 1463.38
263.49 K, 388 kPa, Liquid | 1463.45
263.49 K, 390.4 kPa, Liquid | 1463.48
263.49 K, 401.9 kPa, Liquid | 1463.54
263.49 K, 413.3 kPa, Liquid | 1463.57
263.49 K, 431.1 kPa, Liquid | 1463.65
263.49 K, 433.8 kPa, Liquid | 1463.67
263.49 K, 447.7 kPa, Liquid | 1463.79
263.49 K, 467.1 kPa, Liquid | 1463.9
263.49 K, 484.1 kPa, Liquid | 1463.94
263.49 K, 491.3 kPa, Liquid | 1463.96
263.49 K, 502.2 kPa, Liquid | 1464.1
263.49 K, 506.6 kPa, Liquid | 1464.15
263.49 K, 518.2 kPa, Liquid | 1464.18
263.49 K, 527.6 kPa, Liquid | 1464.19
263.49 K, 529.9 kPa, Liquid | 1464.3
263.49 K, 550.9 kPa, Liquid | 1464.3
263.49 K, 554.1 kPa, Liquid | 1464.39
263.49 K, 574.4 kPa, Liquid | 1464.38
263.49 K, 584.9 kPa, Liquid | 1464.43
263.49 K, 596.2 kPa, Liquid | 1464.57
263.49 K, 625.2 kPa, Liquid | 1464.59
263.49 K, 652.6 kPa, Liquid | 1464.81
263.49 K, 673 kPa, Liquid | 1464.96
263.49 K, 705.5 kPa, Liquid | 1465.02
263.49 K, 728.3 kPa, Liquid | 1465.2
263.49 K, 751.2 kPa, Liquid | 1465.25
263.49 K, 772.1 kPa, Liquid | 1465.47
263.49 K, 792.6 kPa, Liquid | 1465.54
263.49 K, 813.9 kPa, Liquid | 1465.54
263.49 K, 853.1 kPa, Liquid | 1465.89
263.49 K, 888.3 kPa, Liquid | 1465.94
263.49 K, 912.8 kPa, Liquid | 1466.07
263.49 K, 939.3 kPa, Liquid | 1466.24
263.49 K, 962.1 kPa, Liquid | 1466.39
263.49 K, 982.9 kPa, Liquid | 1466.54
263.49 K, 1031 kPa, Liquid | 1466.76
263.49 K, 1064.1 kPa, Liquid | 1466.9
263.49 K, 1098.2 kPa, Liquid | 1467.05
263.49 K, 1132.8 kPa, Liquid | 1467.28
263.49 K, 1165.8 kPa, Liquid | 1467.41
263.49 K, 1201.1 kPa, Liquid | 1467.57
263.49 K, 1250.1 kPa, Liquid | 1467.92
